# Earlier results in patent publication US8492366B2, “Enhancedly-solubilized beta-hydroxy acids and higher potency skin peels formulated therefrom” (Societe L'Oreal S.A., priority 2002, dated 2013).
compound,measurement,value
"O=C(O)c1ccccc1O [salicylic acid, 2-hydroxybenzoic acid]",maximum solubility in alcohol,~29%
